# Measurements as given in patent publication US20230255906A1, “Targeting Serpin B9 in Cancer” (The Brigham and Women`s Hospital, Inc., priority 2020, published 2023).
# System: B16 melanoma cells
# Assay: Caspase-3 activity assay (EnzChek Caspase-3 Assay Kit), caspase-3 induction in tumor cells; note: test concentration or dose not given here
# Format: cell-based, mouse
# Conditions: not given
# Excerpt: The EnzChek® Caspase-3 Assay Kit was used to detect apoptosis by assaying for increases in caspase-3 activities. The basis for the assay was rhodamine 110 bis-(N-CBZ-L-aspartyl-L-glutamyl-L-valyl-L-aspartic acid amide) (Z-DEVD-R110). This substrate is a bisamide derivative of rhodamine 110 (R110) containing DEVD peptides covalently linked to each of R110's amino groups, thereby suppressing the dye's visible absorption and its fluorescence. Upon enzymatic cleavage, the nonfluorescent bisamide substrate is converted in a two-step process first to a fluorescent monoamide and then to an even more fluorescent R110.
# At least 1×10^6 cells of the lysate were used for each reaction. B16 cells were treated with compounds to induce apoptosis. A negative control was prepared by incubating cells in the absence of compounds. The cells were incubated with compounds for 24 hrs and washed in PBS. Each cell sample or control was resuspended in 50 μL of the 1×cell lysis buffer. Cells were lysed by incubating on ice for 30 minutes, and the lysed cells were centrifuged to pellet the cellular debris. 50 μL of the supernatant was transferred from each sample to individual microplate wells. 50 μL of the 1× cell lysis buffer was used as a no-enzyme control to determine the background fluorescence of the substrate. 50 μL of the 2×substrate working solution was added to each sample and control. The microplate was covered, and the samples were incubated at room temperature for approximately 30 minutes. The fluorescence was measured by a fluorescence microplate reader (excitation/emission ˜496/520 nm) using excitation and emission filters.
# The ability of this small molecule inhibitor to inhibit intracellular Sb9 was then evaluated. As a marker for cell penetration, the induction of caspase-3 activity in B16 melanoma cells as a surrogate marker for increased GrB activity was measured.
# The induction of caspase-3 activity in B16 melanoma cells as a surrogate marker for increased GrB activity was also measured for other small molecules (compounds of Formulas (V) and (VI) as described herein).
row,Structure (SMILES),Ratio of caspase-3 activity to Formula (III)
1,"CO[C@H]1CN(C)C[C@@H]1NC(=O)c1ccc2oc(-c3cccc(F)c3)nc2c1 (relative stereo) [2-(3-fluorophenyl)-N-[(3S*,4S*)-4-methoxy-1-methylpyrrolidin-3-yl]-1,3-benzoxazole-5-carboxamide]",0.08936
2,"CCC(=O)C1CCCN(C(=O)c2ccc3nc(-c4cccc(OC)c4)oc3c2)C1 (stereo not drawn) [1-(1-{[2-(3-methoxyphenyl)-1,3-benzoxazol-6-yl]carbonyl}-3-piperidinyl)-1-propanone]",0.1346
3,"O=C(c1ccc2nc(-c3ccccc3)oc2c1)N1CCC(O)CC1 [1-(2-phenyl-1,3-benzoxazole-6-carbonyl)piperidin-4-ol]",1.327
4,"O=C(c1ccc2oc(-c3cccc(F)c3)nc2c1)N1CCC(O)(c2ccccc2)CC1 [1-{[2-(3-fluorophenyl)-1,3-benzoxazol-5-yl]carbonyl}-4-phenyl-4-piperidinol]",0.1773
5,"COc1cccc(-c2nc3ccc(C(=O)N4CCC(N(C)C)C4)cc3o2)c1 (stereo not drawn) [1-{[2-(3-methoxyphenyl)-1,3-benzoxazol-6-yl]carbonyl}-N,N-dimethyl-3-pyrrolidinamine]",0.9908
6,"CCN(CCN(C)C)C(=O)c1cnc2c(c1)nc(-c1ccccc1Cl)n2C [2-(2-chlorophenyl)-N-[2-(dimethylamino)ethyl]-N-ethyl-3-methyl-3H-imidazo[4,5-b]pyridine-6-carboxamide]",1.106
7,"COCCOC1CCN(C(=O)c2ccc3oc(-c4cccc(F)c4)nc3c2)CC1 [2-(3-fluorophenyl)-5-{[4-(2-methoxyethoxy)-1-piperidinyl]carbonyl}-1,3-benzoxazole]",0.1314
8,"CN(CCC(O)c1ccccc1)C(=O)c1ccc2oc(-c3cccc(F)c3)nc2c1 (stereo not drawn) [2-(3-fluorophenyl)-N-(3-hydroxy-3-phenylpropyl)-N-methyl-1,3-benzoxazole-5-carboxamide]",0.1288
9,"O=C(NCc1cccnc1)c1ccc2oc(-c3cccc(F)c3)nc2c1 [2-(3-fluorophenyl)-N-(3-pyridinylmethyl)-1,3-benzoxazole-5-carboxamide]",0.1077
10,"O=C(NCc1ccno1)c1ccc2oc(-c3cccc(F)c3)nc2c1 [2-(3-fluorophenyl)-N-(isoxazol-5-ylmethyl)-1,3-benzoxazole-5-carboxamide]",0.09526
11,"CC(NC(=O)c1ccc2oc(-c3cccc(F)c3)nc2c1)c1ncn[nH]1 (stereo not drawn) [2-(3-fluorophenyl)-N-[1-(1H-1,2,4-triazol-5-yl)ethyl]-1,3-benzoxazole-5-carboxamide]",0.1158
12,"CC(Cn1cncn1)NC(=O)c1ccc2oc(-c3cccc(F)c3)nc2c1 (stereo not drawn) [2-(3-fluorophenyl)-N-[1-methyl-2-(1H-1,2,4-triazol-1-yl)ethyl]-1,3-benzoxazole-5-carboxamide]",0.1014
13,"Cn1cc(CCNC(=O)c2ccc3oc(-c4cccc(F)c4)nc3c2)cn1 [2-(3-fluorophenyl)-N-[2-(1-methyl-1H-pyrazol-4-yl)ethyl]-1,3-benzoxazole-5-carboxamide]",0.4475
14,"O=C(NCCn1cccn1)c1ccc2oc(-c3cccc(F)c3)nc2c1 [2-(3-fluorophenyl)-N-[2-(1H-pyrazol-1-yl)ethyl]-1,3-benzoxazole-5-carboxamide]",0.4693
15,"O=C(NCCc1cn[nH]c1)c1ccc2oc(-c3cccc(F)c3)nc2c1 [2-(3-fluorophenyl)-N-[2-(1H-pyrazol-4-yl)ethyl]-1,3-benzoxazole-5-carboxamide]",0.4925
16,"O=C(NCCc1ccco1)c1ccc2oc(-c3cccc(F)c3)nc2c1 [2-(3-fluorophenyl)-N-[2-(2-furyl)ethyl]-1,3-benzoxazole-5-carboxamide]",0.09438
17,"Cn1cnnc1CCNC(=O)c1ccc2oc(-c3cccc(F)c3)nc2c1 [2-(3-fluorophenyl)-N-[2-(4-methyl-4H-1,2,4-triazol-3-yl)ethyl]-1,3-benzoxazole-5-carboxamide]",0.7133
18,"O=C(NCCCn1cccn1)c1ccc2oc(-c3cccc(F)c3)nc2c1 [2-(3-fluorophenyl)-N-[3-(1H-pyrazol-1-yl)propyl]-1,3-benzoxazole-5-carboxamide]",0.9113
19,"Cn1cc(CNC(=O)c2ccc3oc(-c4cccc(F)c4)nc3c2)cn1 [2-(3-fluorophenyl)-N-[(1-methyl-1H-pyrazol-4-yl)methyl]-1,3-benzoxazole-5-carboxamide]",0.1005
20,"Cc1nc(CNC(=O)c2ccc3oc(-c4cccc(F)c4)nc3c2)cs1 [2-(3-fluorophenyl)-N-[(2-methyl-1,3-thiazol-4-yl)methyl]-1,3-benzoxazole-5-carboxamide]",0.09788
21,"O=C(N[C@H]1CCCCNC1=O)c1ccc2oc(-c3cccc(F)c3)nc2c1 [2-(3-fluorophenyl)-N-[(3S)-2-oxo-3-azepanyl]-1,3-benzoxazole-5-carboxamide]",0.771
22,"CC(C)N(Cc1nccn1C)C(=O)c1ccc2oc(-c3cccc(F)c3)nc2c1 [2-(3-fluorophenyl)-N-isopropyl-N-[(1-methyl-1H-imidazol-2-yl)methyl]-1,3-benzoxazole-5-carboxamide]",1.634
23,"CN(CCN1CCCCC1)C(=O)c1ccc2oc(-c3cccc(F)c3)nc2c1 [2-(3-fluorophenyl)-N-methyl-N-[2-(1-piperidinyl)ethyl]-1,3-benzoxazole-5-carboxamide]",0.1405
24,"CCCOC1CCCN(C(=O)c2ccc3nc(-c4cccc(OC)c4)oc3c2)C1 (stereo not drawn) [2-(3-methoxyphenyl)-6-[(3-propoxy-1-piperidinyl)carbonyl]-1,3-benzoxazole]",0.1495
25,"COc1cccc(-c2nc3ccc(C(=O)N4CCN(Cc5cccnc5)CC4)cc3o2)c1 [2-(3-methoxyphenyl)-6-{[4-(3-pyridinylmethyl)-1-piperazinyl]carbonyl}-1,3-benzoxazole]",0.1411
26,"COc1cccc(-c2nc3ccc(C(=O)NCc4nnn[nH]4)cc3o2)c1 [2-(3-methoxyphenyl)-N-(1H-tetrazol-5-ylmethyl)-1,3-benzoxazole-6-carboxamide]",0.3911
27,"COc1cccc(-c2nc3ccc(C(=O)NCC(F)(F)F)cc3o2)c1 [2-(3-methoxyphenyl)-N-(2,2,2-trifluoroethyl)-1,3-benzoxazole-6-carboxamide]",0.09526
28,"COc1cccc(-c2nc3ccc(C(=O)NCC4CCCO4)cc3o2)c1 (stereo not drawn) [2-(3-methoxyphenyl)-N-(tetrahydro-2-furanylmethyl)-1,3-benzoxazole-6-carboxamide]",0.4304
29,"COc1cccc(-c2nc3ccc(C(=O)NCC4CCCCO4)cc3o2)c1 (stereo not drawn) [2-(3-methoxyphenyl)-N-(tetrahydro-2H-pyran-2-ylmethyl)-1,3-benzoxazole-6-carboxamide]",1.425
30,"COc1cccc(-c2nc3ccc(C(=O)NCC4CCOCC4)cc3o2)c1 [2-(3-methoxyphenyl)-N-(tetrahydro-2H-pyran-4-ylmethyl)-1,3-benzoxazole-6-carboxamide]",0.09286

# Same assay, conditions: relative to compound of Formula (III)
row,Structure (SMILES),"Caspase-3 induction, Normalized to Formula (III) (%)"
1,"COc1cc(Br)c(C(=O)N2CCCC2)cc1OC [1-(2-bromo-4,5-dimethoxybenzoyl)pyrrolidine]",18.4794%
2,"O=C(c1ccc2nc(C(F)(F)C(F)(F)F)oc2c1)N1CCCC1 [2-(1,1,2,2,2-pentafluoroethyl)-6-(pyrrolidine-1-carbonyl)-1,3-benzoxazole]",−38.2832%
3,"O=C(Cc1ccc2ocnc2c1)N1CCCC1 [2-(1,3-benzoxazol-5-yl)-1-(pyrrolidin-1-yl)ethan-1-one]",3.0541%
4,"COCCCNC(=O)Cc1ccc2ocnc2c1 [2-(1,3-benzoxazol-5-yl)-N-(3-methoxypropyl)acetamide]",−31.2011%
5,"O=C(Cc1ccc2ocnc2c1)NCc1ccccc1 [2-(1,3-benzoxazol-5-yl)-N-benzylacetamide]",−34.4942%
6,"O=C(Cc1ccc2ocnc2c1)NC1CCCC1 [2-(1,3-benzoxazol-5-yl)-N-cyclopentylacetamide]",−4.02%
7,"O=C(c1ccc2nc(-c3cc(Cl)cc(Cl)c3)oc2c1)N1CCCC1 [2-(3,5-dichlorophenyl)-6-(pyrrolidine-1-carbonyl)-1,3-benzoxazole]",−6.23%
8,"COCCCNC(=O)c1ccc2nc(-c3cc(Cl)cc(Cl)c3)oc2c1 [2-(3,5-dichlorophenyl)-N-(3-methoxypropyl)-1,3-benzoxazole-6-carboxamide]",−31.5901%
9,"CCN(C)C(=O)c1ccc2nc(-c3cc(Cl)cc(Cl)c3)oc2c1 [2-(3,5-dichlorophenyl)-N-ethyl-N-methyl-1,3-benzoxazole-6-carboxamide]",−85.6535%
